target: T1, IRAK4 (Homo sapiens, UniProt Q9NWZ3); assay: ALE THP1 HTRF (Advanced Lipoxidation End Product THP1 Homogeneous Time Resolved Fluorescence); format: cell-based; settings: THP1 cells
T1 construct: endogenous in cells; host or cells: THP-1 cells
T1 sequence (Q9NWZ3 1-460): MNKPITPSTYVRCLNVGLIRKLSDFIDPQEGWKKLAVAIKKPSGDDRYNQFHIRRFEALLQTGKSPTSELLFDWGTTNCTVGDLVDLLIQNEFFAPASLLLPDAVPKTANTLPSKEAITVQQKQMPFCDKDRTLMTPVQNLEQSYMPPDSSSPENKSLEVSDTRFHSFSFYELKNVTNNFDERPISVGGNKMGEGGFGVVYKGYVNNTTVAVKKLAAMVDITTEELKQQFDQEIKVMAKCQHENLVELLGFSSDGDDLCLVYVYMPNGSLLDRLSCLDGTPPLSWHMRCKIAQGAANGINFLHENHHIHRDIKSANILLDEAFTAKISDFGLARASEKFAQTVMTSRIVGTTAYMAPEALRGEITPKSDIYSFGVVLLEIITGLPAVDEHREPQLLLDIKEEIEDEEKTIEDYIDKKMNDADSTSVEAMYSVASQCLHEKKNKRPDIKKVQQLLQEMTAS
In short: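 Cells lysed 45 min at room temperature; lysates normalized to total protein by BCA. Total IRAK4 detected by HTRF sandwich (anti-IRAK4-d2 plus anti-IRAK4-cryptate), incubated overnight in the dark at room temperature, read on a time-resolved fluorescence plate reader.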

Row | ALE THP1 HTRF YMIN | EC50 | SMILES
1 | 11.2% | 0.006 µM | N#Cc1cnc2c(cnn2-c2cc(N[C@H]3CCC[C@H]3O)c(C(=O)NC3CCC(CCN4CCN(c5ccc(C6CCC(=O)NC6=O)cc5)CC4)CC3)cn2)c1 (some centres unmarked) [P-66]
2 | 8.1% | 0.058 µM | O=C1CCC(c2ccc(N3CCN(CCC4CCC(NC(=O)c5cnc(Nc6ccc7ncsc7c6)cc5NC5CCCC5)CC4)CC3)cc2)C(=O)N1 (centres unmarked) [P-73]
3 | 9.4% | 0.008 µM | N#Cc1cnc2c(cnn2-c2cc(NC3CCOCC3)c(C(=O)NC3CCC(CCN4CCN(c5ccc(C6CCC(=O)NC6=O)cc5)CC4)CC3)cn2)c1 (centres unmarked) [P-74]
4 | 11.4% | 0.062 µM | N#Cc1cnn2c(-c3cc(NC4CCCC4)c(C(=O)NC4CCC(CCN5CCN(c6ccc(C7CCC(=O)NC7=O)cc6)CC5)CC4)cn3)ccc2c1 (centres unmarked) [P-75]
5 | 10.7% | 0.073 µM | CC(C)(C[C@H]1CC[C@H](NC(=O)c2cnc(-n3ncc4cc(C#N)cnc43)cc2NC2CCCC2)CC1)N1CCN(c2ccc(C3CCC(=O)NC3=O)cc2)CC1 (some centres unmarked) [P-81, 6-(5-cyano-1H-pyrazolo[3,4-b]pyridin-1-yl)-4-(cyclopentylamino)-N-((1r,4r)-4-(2-(4-(4-(2,6-dioxopiperidin-3-yl)phenyl)piperazin-1-yl)-2-methylpropyl)cyclohexyl)nicotinamide]
6 | 8.6% | 0.23 µM | N#Cc1cnc2c(cnn2-c2cc(NC3CCC3)c(C(=O)NC3CCC(CCN4CCN(c5ccc(C6CCC(=O)NC6=O)cc5)CC4)CC3)cn2)c1 (centres unmarked) [P-82]
7 | 11.3% | 0.038 µM | N#Cc1cnc2c(cnn2-c2cc(NC34CC(C3)C4)c(C(=O)NC3CCC(CCN4CCN(c5ccc(C6CCC(=O)NC6=O)cc5)CC4)CC3)cn2)c1 (centres unmarked) [P-92]
8 | 13.0% | 0.023 µM | N#Cc1cnc2c(-c3cc(NC4CC4)c(C(=O)NC4CCC(CCN5CCN(c6ccc(C7CCC(=O)NC7=O)cc6)CC5)CC4)cn3)cnn2c1 (centres unmarked) [P-93]
9 | 9.9% | 0.015 µM | N#Cc1cnc2c(cnn2-c2cc(NC3CC3)c(C(=O)NC3CCC(CCN4CCN(c5ccc([C@H]6CCC(=O)NC6=O)cc5)CC4)CC3)cn2)c1 (some centres unmarked) [P-95]

Further lines, the molecule ahead of its results:

Row | SMILES | ALE THP1 HTRF YMIN | EC50
10 | CC(C)CNc1cc(-n2ncc3cc(C#N)cnc32)ncc1C(=O)NC1CCC(CCN2CCN(c3ccc(C4CCC(=O)NC4=O)cc3)CC2)CC1 (centres unmarked) [P-64] | 10.1% | 0.03 µM
11 | CC(F)(F)CNc1cc(-n2ncc3cc(C#N)cnc32)ncc1C(=O)NC1CCC(CCN2CCN(c3ccc(C4CCC(=O)NC4=O)cc3)CC2)CC1 (centres unmarked) [P-65] | 7.3% | 0.01 µM
12 | C[C@H]1CN(c2ccc(C3CCC(=O)NC3=O)cc2)C[C@H](C)N1CCC1CCC(NC(=O)c2cnc(-n3ncc4cc(C#N)cnc43)cc2NC2CCCC2)CC1 (some centres unmarked) [P-67] | 9.3% | 0.034 µM
13 | C[C@@H]1CN(c2ccc(C3CCC(=O)NC3=O)cc2)C[C@@H](C)N1CCC1CCC(NC(=O)c2cnc(-n3ncc4cc(C#N)cnc43)cc2NC2CCCC2)CC1 (some centres unmarked) [P-68] | 19.3% | 0.136 µM
14 | N#Cc1cnc2c(cnn2-c2cc(NC3CCCC3)c(C(=O)N[C@H]3CC[C@H](CN4CCC(COc5ccc(C6CCC(=O)NC6=O)cc5)CC4)CC3)cn2)c1 (some centres unmarked) [P-69] | 15.4% | 0.417 µM
15 | N#Cc1cnc2c(cnn2-c2cc(Nc3cnn(CC(F)(F)F)c3)c(C(=O)NC3CCC(CCN4CCN(c5ccc(C6CCC(=O)NC6=O)cc5)CC4)CC3)cn2)c1 (centres unmarked) [P-70] | 8.2% | 0.003 µM
16 | CCNc1cc(-n2ncc3cc(C#N)cnc32)ncc1C(=O)NC1CCC(CCN2CCN(c3ccc(C4CCC(=O)NC4=O)cc3)CC2)CC1 (centres unmarked) [P-71] | 10.9% | 0.008 µM
17 | N#Cc1cnc2c(cnn2-c2cc(NC3CC3)c(C(=O)NC3CCC(CCN4CCC(c5ccc(C6CCC(=O)NC6=O)cc5)CC4)CC3)cn2)c1 (centres unmarked) [P-72] | 9.5% | 0.005 µM
18 | CC1(Nc2cc(-n3ncc4cc(C#N)cnc43)ncc2C(=O)NC2CCC(CCN3CCN(c4ccc(C5CCC(=O)NC5=O)cc4)CC3)CC2)CC1 (centres unmarked) [P-76] | 8.3% | 0.007 µM
19 | CC(Nc1cc(-n2ncc3cc(C#N)cnc32)ncc1C(=O)NC1CCC(CCN2CCN(c3ccc(C4CCC(=O)NC4=O)cc3)CC2)CC1)C(F)(F)F (centres unmarked) [P-77] | 11.3% | 0.028 µM
20 | C[C@@H](CO)Nc1cc(-n2ncc3cc(C#N)cnc32)ncc1C(=O)NC1CCC(CCN2CCN(c3ccc(C4CCC(=O)NC4=O)cc3)CC2)CC1 (some centres unmarked) [P-78] | 7.6% | 0.009 µM
21 | COc1cc(N2CCN(CCC3CCC(NC(=O)c4cnc(-n5ncc6cc(C#N)cnc65)cc4NC4CC4)CC3)CC2)ccc1C1CCC(=O)NC1=O (centres unmarked) [P-79] | 12.2% | 0.043 µM
22 | COc1cc(C2CCC(=O)NC2=O)ccc1N1CCN(CCC2CCC(NC(=O)c3cnc(-n4ncc5cc(C#N)cnc54)cc3NC3CC3)CC2)CC1 (centres unmarked) [P-80] | 7.3% | 0.026 µM
23 | CC(C)(C)Nc1cc(-n2ncc3cc(C#N)cnc32)ncc1C(=O)NC1CCC(CCN2CCN(c3ccc(C4CCC(=O)NC4=O)cc3)CC2)CC1 (centres unmarked) [P-83] | 8.1% | 0.047 µM
24 | N#Cc1cnc2c(cnn2-c2cc(NC3CC3)c(C(=O)NC3CCC(CCN4CCN(c5ccc(C6CCC(=O)NC6=O)c(Cl)c5)CC4)CC3)cn2)c1 (centres unmarked) [P-84] | 9.7% | 0.035 µM
25 | N#Cc1cnc2c(cnn2-c2cc(NC3CC3)c(C(=O)NC3CCC(CCN4CCN(c5ccc(C6CCC(=O)NC6=O)nc5)CC4)CC3)cn2)c1 (centres unmarked) [P-85] | 11.7% | 0.117 µM
26 | CNc1cc(-n2ncc3cc(C#N)cnc32)ncc1C(=O)NC1CCC(CCN2CCN(c3ccc(C4CCC(=O)NC4=O)cc3)CC2)CC1 (centres unmarked) [P-86] | 11.8% | 0.09 µM
27 | N#Cc1cnc2c(cnn2-c2cc(NC3CCCC3)c(-n3cc([C@H]4CC[C@H](CCN5CCN(c6ccc(C7CCC(=O)NC7=O)cc6)CC5)CC4)nn3)cn2)c1 (some centres unmarked) [P-87, 1-[4-(cyclopentylamino)-5-[4-[4-[2-[4-[4-(2,6-dioxo-3-piperidyl)phenyl]piperazin-1-yl]ethyl]cyclohexyl]triazol-1-yl]-2-pyridyl]pyrazolo[3,4-b]pyridine-5-carbonitrile] | 10.5% | 0.026 µM
28 | N#Cc1cnc2c(cnn2-c2cc(NC3CC3)c(C(=O)N[C@H]3CC[C@H](OCC4CCN(c5ccc(C6CCC(=O)NC6=O)cc5)CC4)CC3)cn2)c1 (some centres unmarked) [P-88] | 64.5% | 0.049 µM
29 | N#CCNc1cc(-n2ncc3cc(C#N)cnc32)ncc1C(=O)NC1CCC(CCN2CCN(c3ccc(C4CCC(=O)NC4=O)cc3)CC2)CC1 (centres unmarked) [P-89] | 10.3% | 0.023 µM
30 | N#Cc1cnc2c(cnn2-c2cc(NC3CC3)c(C(=O)N[C@H]3CC[C@H](CCN4CCC5(CC4)CN(c4cccc(C6CCC(=O)NC6=O)c4)C5)CC3)cn2)c1 (some centres unmarked) [P-90] | 11.6% | 0.028 µM
31 | C[C@H](C#N)Nc1cc(-n2ncc3cc(C#N)cnc32)ncc1C(=O)N[C@H]1CC[C@H](CCN2CCN(c3ccc(C4CCC(=O)NC4=O)cc3)CC2)CC1 (stereo partly drawn) [P-91, 6-(5-Cyano-1H-pyrazolo[3,4-b]pyridin-1-yl)-4-(((R)-1-cyanoethyl)amino)-N-((1r,4r)-4-(2-(4-(4-(2,6-dioxopiperidin-3-yl)phenyl)piperazin-1-yl)ethyl)cyclohexyl)nicotinamide] | 7.0% | 0.005 µM

From US20240109881A1, “Heteroaryl Compounds as Ligand Directed Degraders of IRAK4” (Bristol-Myers Squibb Company, priority 2022, published 2024)
